Reference: PMC6458995, “MAP4K4 Inhibition Promotes Survival of Human Stem Cell-Derived Cardiomyocytes and Reduces Infarct Size In Vivo” (Cell Stem Cell, 2019)
pEC50: −log10 of the molar value.

Assays:
vCor.4U hiPSC-CMs = test: Calcium transients (FLIPR Tetra, EarlyTox Cardiotoxicity dye); assay type: cell-based, human
Method: Calcium transients in hiPSC-CMs were assessed using FLIPR Tetra instrumentation and Early Tox Cardiotoxicity kits (Molecular Devices). vCor.4U cells were subjected to graded concentrations of menadione and the MAP4K4 inhibitors as described for the viability assays. Compound concentrations and time course are denoted in the figure and figure legend. Vehicle controls were used throughout. Cells were incubated for 2-3 hr at 37°C in 5% CO2, using 3 μL well^-1 of EarlyTox Cardiotoxicity Kit concentrate as the fluorescent calcium indicator dye. Plates were then removed from the incubator and allowed to reach room temperature. Intracellular calcium oscillations were monitored using a FLIPR Tetra system with excitation LED bank 470-495 nm and emission filter set 515-575 nm (Molecular Devices). Fluorescence intensity signals were acquired for 600 reads at 1.2 ms intervals. Beat frequency, median peak height, median peak width and total peak area were calculated and compared with the baseline control and with menadione alone. Protection of calcium cycling by DMX-4804 was confirmed in 3 independent experiments with overlapping conditions, and results are shown for a full dose-response study, analyzing 4 wells for each point.

vCor.4U cardiomyocytes = test: Human cardiac troponin I release (AlphaLISA) after oxidative stress; assay type: cell-based; conditions: 10 μM compound, up to 200 μM H2O2 or 45 μM menadione
Method: For cell-based dose-response experiments, MAP4K4 inhibitors were prepared in 96-well polypropylene plates as serial dilutions in DMSO of 10 mM stock solutions. To a sterile 96-well intermediate plate, 1 μl of each well was added to 99 μl of medium, the samples were mixed, and 5 μl well^-1 from the intermediate plate were transferred to the cultured cells (final concentration, 0.1% DMSO; final top concentration of inhibitor, 10 μM). Assay plates were gently centrifuged then incubated for 1 hr at 37°C. The death triggers menadione, H2O2 and doxorubicin were prepared fresh on the day of treatment at 10x the final concentrations and 5 μl well^-1 were added as appropriate. Assay plates were gently centrifuged and then incubated at 37°C for the duration of treatment.
Aliquots of medium collected after cells’ treatment with death signals and MAP4K4 inhibitors were incubated at room temperature with AlphaLISA human cardiac troponin I detection reagents (PerkinElmer): sequentially, anti-Troponin I acceptor beads for 1 hr, biotinylated antibody to troponin I for 1hr, and streptavidin (SA)-coated donor beads for 30 min. The AlphaLISA signal was acquired using the Pherastar Plus plate reader. All detection reagents were diluted in 1X AlphaLISA Immunoassay Buffer and a serially diluted analyte standard was used to quantitate the concentration of human cardiac troponin I (pg ml^-1).

iCell cardiomyocytes [1] = test: CellTiter-Glo protection from 400 μM H2O2; assay type: cell-based; conditions: Homo sapiens, Cardiomyocyte, read-out: EC50 in iCell cardiomyocytes (protecting hiPSC-CMs)
Method: (§1) iCell cardiomyocytes were thawed, transferred to Plating Medium, counted using a Vi-CELL XR cell viability analyzer (Beckman Coulter), and seeded into 24-well plates for RNA collection (60,000 cells well^-1; Greiner) or μClear half-area 96-well plates for gene silencing (10,000 cells well^-1; Greiner). Plates were coated with 10 μg ml^-1 collagen type I (BD Biosciences). Cells were cultured in iCell Cardiomyocytes Plating Medium for 2 d and in Maintenance Medium thereafter. For compound dose-response comparisons, the cells were deposited in Plating Medium at 10,000 cells well^-1 in 0.1% (w/v) gelatin-coated 384-well white Greiner plates and were cultured as above for 8 d before treatment.
For cell-based dose-response experiments, MAP4K4 inhibitors were prepared in 96-well polypropylene plates as serial dilutions in DMSO of 10 mM stock solutions. […]
Assay plates were removed from the incubator, allowed to reach room temperature, inoculated with 20 μl well^-1 CTG reagent (Promega), and gently agitated for 30 min. […] Luminescence due to ATP, proportional to cell number, was captured on a PHERAstar Plus microplate reader (BMG Labtech). […]

vCor.4U cells = test: Hypoxia-reoxygenation assay (CellTox Green); assay type: cell-based, human; conditions: 3 cycles of 0.1% O2 over 8 h
Method: vCor.4U cells were plated at 10,000 well^-1 in Cor.4U medium using black, clear-bottom 96-well plates pre-treated with Geltrex (GIBCO). After incubation overnight at 37°C, the media was replaced with phenol red-free DMEM (GIBCO) supplemented with 2% FCS, 2 mM […], 1 mM pyruvate and 10 mM D-galactose. DMX-5804 prepared in DMSO and CellTox Green (Promega) were added and incubated for 1 hr at 37°C. A breathable seal (AeraSeal) was added to the plate before transferring to a CLARIOstar plate reader (BMG Labtech) equipped with an atmospheric control unit. Oxygen concentration ramping was executed as follows (% O2, hr), at 37°C and 5% CO2. Fluorescence measurements (λex/em 483-14/530-30) were taken using the multiple scan and direct bottom features (5 positions read), and matrix averaging of each position every 20 min. Data were blank corrected, averaged (n = 2) and subjected to exponential smoothing with a damping factor of 0.3.

iCell cardiomyocytes [2] = test: Human cardiac muscle cell death, DRAQ7 uptake (high-content); assay type: cell-based; conditions: H2O2, micromolar concentrations
Method: as §1, with “treatment. […]” for “treatment.”
To measure loss of membrane integrity, iCell hiPSC-CMs were co-stained for 15 min at 37°C with 0.3 μM DRAQ7 (Biostatus), a cell-impermeable dye, and with 0.8 μM Hoescht 33342 (Molecular Probes), as the membrane-permeable dye. Dyes were removed and the nuclear fluorescence scored (typically, 15,000-20,000 cells well^-1) using a Cellomics ArrayScan VTI High Content Screening platform. The line harbors a cardiomyocyte-specific Myh6-driven reporter gene for monomeric red fluorescent protein (RFP), enabling cell death to be scored exclusively in the myocyte population. Successfully transduced cells were identified on the basis of TurboGFP fluorescence. […]

SMILES	pEC50 (vCor.4U hiPSC-CMs; Homo sapiens, calcium cycling, menadione, vCor.4U, read-out: concentration preserving ∼50% of peak area and peak height)	duration for which protection of calcium cycling was maintained (vCor.4U hiPSC-CMs; menadione present throughout)	spontaneous calcium cycling after hypoxia-reoxygenation (vCor.4U hiPSC-CMs; vCor.4U, 8 hr after hypoxia-reoxygenation, 10 μM)	effect on baseline calcium cycling (vCor.4U hiPSC-CMs; vCor.4U, no menadione)	protection from death signal (human cardiac troponin release) (vCor.4U cardiomyocytes)	pEC50 (iCell cardiomyocytes [1])	protection of human cardiomyocyte survival, hypoxia-reoxygenation (vCor.4U cells)	suppression of human cardiac muscle cell death (DRAQ7 uptake) (iCell cardiomyocytes [2])
COCCOc1ccc(-c2cn(-c3ccccc3)c3nc[nH]c(=O)c23)cc1 [DMX-5804, 5-[4-(2-methoxy-ethoxy)-phenyl]-7-phenyl-3,7-dihydro-pyrrolo[2,3-d]pyrimidin-4-one]	5.70 to 6.30	up to 96 h	protection was conferred	no effect	substantiated	6.30	confirmed	–
Oc1ncnc2c1c(-c1ccccc1)cn2-c1ccccc1 [F1386-0303, 5,7-diphenyl-7H-pyrrolo[2,3-d]pyrimidin-4-ol]	–	–	–	–	virtually complete	5.30	–	highly protective
